# From PubChem BioAssay (NCI)
#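 In this assay, cells in 96-well plates receive the compound at five concentrations for 48 hours. Endpoints are linearly interpolated between the surrounding concentrations. At the TGI there is no net growth.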
# How the values were obtained:
# Assay in all cases: NCI anticancer screen, dose series, 48 h
# 786-0 renal = test system: 786-0 renal
# A498 renal = test system: A498 renal
# A549 NSCLC = test system: A549 NSCLC
# ACHN renal = test system: ACHN renal
# CAKI-1 renal = test system: CAKI-1 renal
# COLO 205 colon = test system: COLO 205 colon
# DLD-1 colon = test system: DLD-1 colon
# DMS 114 small cell lung = test system: DMS 114 small cell lung
# DMS 273 small cell lung = test system: DMS 273 small cell lung
# EKVX NSCLC = test system: EKVX NSCLC
# HCC-2998 colon = test system: HCC-2998 colon
# HCT-116 colon = test system: HCT-116 colon
# HCT-15 colon = test system: HCT-15 colon
# HOP-18 NSCLC = test system: HOP-18 NSCLC
# HOP-62 NSCLC = test system: HOP-62 NSCLC
# HOP-92 NSCLC = test system: HOP-92 NSCLC
# HT29 colon = test system: HT29 colon
# IGROV1 ovarian = test system: IGROV1 ovarian
# KM12 colon = test system: KM12 colon
# KM20L2 colon = test system: KM20L2 colon
# LXFL 529 NSCLC = test system: LXFL 529 NSCLC
# M14 melanoma = test system: M14 melanoma
# M19-MEL melanoma = test system: M19-MEL melanoma
# MALME-3M melanoma = test system: MALME-3M melanoma
# NCI-H226 lung = test system: NCI-H226 lung
# NCI-H23 lung = test system: NCI-H23 lung
# NCI-H460 lung = test system: NCI-H460 lung
# NCI-H522 lung = test system: NCI-H522 lung
# OVCAR-3 ovarian = test system: OVCAR-3 ovarian
# OVCAR-4 ovarian = test system: OVCAR-4 ovarian
# OVCAR-5 ovarian = test system: OVCAR-5 ovarian
# OVCAR-8 ovarian = test system: OVCAR-8 ovarian
# RPMI-8226 leukemia = test system: RPMI-8226 leukemia
# RXF 393 renal = test system: RXF 393 renal
# SF-268 CNS = test system: SF-268 CNS
# SF-295 CNS = test system: SF-295 CNS
# SF-539 CNS = test system: SF-539 CNS
# SK-MEL-2 melanoma = test system: SK-MEL-2 melanoma
# SK-MEL-28 melanoma = test system: SK-MEL-28 melanoma
# SK-OV-3 ovarian = test system: SK-OV-3 ovarian
# SN12C renal = test system: SN12C renal
# SNB-19 CNS = test system: SNB-19 CNS
# SNB-75 CNS = test system: SNB-75 CNS
# SNB-78 CNS = test system: SNB-78 CNS
# SR leukemia = test system: SR leukemia
# SW-620 colon = test system: SW-620 colon
# U251 CNS = test system: U251 CNS
# UACC-257 melanoma = test system: UACC-257 melanoma
# UACC-62 melanoma = test system: UACC-62 melanoma
# UO-31 renal = test system: UO-31 renal
# CCRF-CEM leukemia = test system: CCRF-CEM leukemia
# HL-60(TB) leukemia = test system: HL-60(TB) leukemia
# K-562 leukemia = test system: K-562 leukemia
# LOX IMVI melanoma = test system: LOX IMVI melanoma
# MOLT-4 leukemia = test system: MOLT-4 leukemia
# SK-MEL-5 melanoma = test system: SK-MEL-5 melanoma
# TK-10 renal = test system: TK-10 renal
compound,measurement,setting,value
O=C1C=C(Nc2ccccc2C(=O)c2ccccc2)c2ccccc2C1=O,TGI,786-0 renal,> 100 µM
same,TGI,A498 renal,> 100 µM
same,TGI,A549 NSCLC,> 100 µM
same,TGI,ACHN renal,> 100 µM
same,TGI,CAKI-1 renal,> 100 µM
same,TGI,COLO 205 colon,> 100 µM
same,TGI,DLD-1 colon,> 100 µM
same,TGI,DMS 114 small cell lung,> 100 µM
same,TGI,DMS 273 small cell lung,> 100 µM
same,TGI,EKVX NSCLC,> 100 µM
same,TGI,HCC-2998 colon,> 100 µM
same,TGI,HCT-116 colon,> 100 µM
same,TGI,HCT-15 colon,> 100 µM
same,TGI,HOP-18 NSCLC,> 100 µM
same,TGI,HOP-62 NSCLC,> 100 µM
same,TGI,HOP-92 NSCLC,> 100 µM
same,TGI,HT29 colon,> 100 µM
same,TGI,IGROV1 ovarian,> 100 µM
same,TGI,KM12 colon,> 100 µM
same,TGI,KM20L2 colon,> 100 µM
same,TGI,LXFL 529 NSCLC,> 100 µM
same,TGI,M14 melanoma,> 100 µM
same,TGI,M19-MEL melanoma,33.2 µM
same,TGI,MALME-3M melanoma,> 100 µM
same,TGI,NCI-H226 lung,> 100 µM
same,TGI,NCI-H23 lung,> 100 µM
same,TGI,NCI-H460 lung,> 100 µM
same,TGI,NCI-H522 lung,55.9 µM
same,TGI,OVCAR-3 ovarian,> 100 µM
same,TGI,OVCAR-4 ovarian,> 100 µM
same,TGI,OVCAR-5 ovarian,> 100 µM
same,TGI,OVCAR-8 ovarian,> 100 µM
same,TGI,RPMI-8226 leukemia,> 100 µM
same,TGI,RXF 393 renal,> 100 µM
same,TGI,SF-268 CNS,> 100 µM
same,TGI,SF-295 CNS,> 100 µM
same,TGI,SF-539 CNS,> 100 µM
same,TGI,SK-MEL-2 melanoma,> 100 µM
same,TGI,SK-MEL-28 melanoma,> 100 µM
same,TGI,SK-OV-3 ovarian,> 100 µM
same,TGI,SN12C renal,> 100 µM
same,TGI,SNB-19 CNS,> 100 µM
same,TGI,SNB-75 CNS,> 100 µM
same,TGI,SNB-78 CNS,> 100 µM
same,TGI,SR leukemia,> 100 µM
same,TGI,SW-620 colon,> 100 µM
same,TGI,U251 CNS,> 100 µM
same,TGI,UACC-257 melanoma,27.9 µM
same,TGI,UACC-62 melanoma,> 100 µM
same,TGI,UO-31 renal,> 100 µM
CC12CCC3(C1)[C@H](CC2=O)C[C@@H](OC(=O)c1ccccc1)C1C(C)(CO)CCC[C@@]13C (stereo not given in full),TGI,786-0 renal,> 100 µM
same,TGI,A498 renal,> 100 µM
same,TGI,A549 NSCLC,97 µM
same,TGI,ACHN renal,> 100 µM
same,TGI,CAKI-1 renal,> 27.2 µM
same,TGI,CCRF-CEM leukemia,> 54.1 µM
same,TGI,COLO 205 colon,27.1 µM
same,TGI,DLD-1 colon,> 100 µM
same,TGI,DMS 114 small cell lung,19.5 µM
same,TGI,DMS 273 small cell lung,13.3 µM
same,TGI,EKVX NSCLC,> 100 µM
same,TGI,HCC-2998 colon,> 100 µM
same,TGI,HCT-116 colon,> 100 µM
same,TGI,HCT-15 colon,> 100 µM
same,TGI,HL-60(TB) leukemia,8.38 µM
same,TGI,HOP-18 NSCLC,> 100 µM
same,TGI,HOP-62 NSCLC,> 100 µM
same,TGI,HOP-92 NSCLC,58.3 µM
same,TGI,HT29 colon,> 100 µM
same,TGI,IGROV1 ovarian,> 100 µM
same,TGI,K-562 leukemia,> 100 µM
same,TGI,KM12 colon,> 100 µM
same,TGI,KM20L2 colon,> 100 µM
same,TGI,LOX IMVI melanoma,> 100 µM
same,TGI,LXFL 529 NSCLC,> 100 µM
same,TGI,M14 melanoma,> 100 µM
same,TGI,M19-MEL melanoma,> 100 µM
same,TGI,MALME-3M melanoma,> 100 µM
same,TGI,MOLT-4 leukemia,19.7 µM
same,TGI,NCI-H226 lung,65.9 µM
same,TGI,NCI-H23 lung,> 100 µM
same,TGI,NCI-H460 lung,> 45.8 µM
same,TGI,NCI-H522 lung,17.9 µM
same,TGI,OVCAR-3 ovarian,> 52.3 µM
same,TGI,OVCAR-4 ovarian,> 72.1 µM
same,TGI,OVCAR-5 ovarian,95.7 µM
same,TGI,OVCAR-8 ovarian,> 100 µM
same,TGI,RPMI-8226 leukemia,12 µM
same,TGI,RXF 393 renal,47.6 µM
same,TGI,SF-268 CNS,> 100 µM
same,TGI,SF-295 CNS,> 38.9 µM
same,TGI,SF-539 CNS,> 100 µM
same,TGI,SK-MEL-2 melanoma,> 90.8 µM
same,TGI,SK-MEL-28 melanoma,> 100 µM
same,TGI,SK-MEL-5 melanoma,1.71 µM
same,TGI,SK-OV-3 ovarian,> 89.1 µM
same,TGI,SN12C renal,> 100 µM
same,TGI,SNB-19 CNS,> 100 µM
same,TGI,SNB-75 CNS,> 100 µM
same,TGI,SNB-78 CNS,> 100 µM
same,TGI,SW-620 colon,> 100 µM
same,TGI,TK-10 renal,> 100 µM
same,TGI,U251 CNS,> 100 µM
same,TGI,UACC-257 melanoma,23.8 µM
same,TGI,UACC-62 melanoma,> 89 µM
same,TGI,UO-31 renal,61.7 µM
N#CC(C#N)=c1ccc(=C2N3CCCC3CN2C23CC4CC(CC(C4)C2)C3)cc1 (stereo not given),TGI,786-0 renal,> 100 µM
same,TGI,A549 NSCLC,> 100 µM
same,TGI,ACHN renal,> 100 µM
same,TGI,CCRF-CEM leukemia,> 100 µM
same,TGI,COLO 205 colon,> 100 µM
same,TGI,DLD-1 colon,> 100 µM
same,TGI,DMS 114 small cell lung,> 100 µM
same,TGI,DMS 273 small cell lung,> 100 µM
same,TGI,EKVX NSCLC,> 100 µM
same,TGI,HCC-2998 colon,> 100 µM
same,TGI,HCT-116 colon,> 100 µM
same,TGI,HCT-15 colon,> 100 µM
same,TGI,HL-60(TB) leukemia,> 100 µM
same,TGI,HOP-18 NSCLC,> 100 µM
same,TGI,HOP-62 NSCLC,> 100 µM
same,TGI,HOP-92 NSCLC,> 100 µM
same,TGI,HT29 colon,> 100 µM
same,TGI,IGROV1 ovarian,> 100 µM
same,TGI,K-562 leukemia,> 100 µM
same,TGI,KM12 colon,> 100 µM
same,TGI,KM20L2 colon,> 100 µM
same,TGI,LOX IMVI melanoma,> 100 µM
same,TGI,LXFL 529 NSCLC,> 100 µM
same,TGI,M14 melanoma,> 100 µM
same,TGI,M19-MEL melanoma,> 100 µM
same,TGI,MALME-3M melanoma,> 100 µM
same,TGI,MOLT-4 leukemia,> 100 µM
same,TGI,NCI-H226 lung,> 100 µM
same,TGI,NCI-H23 lung,> 100 µM
same,TGI,NCI-H460 lung,> 100 µM
same,TGI,NCI-H522 lung,> 100 µM
same,TGI,OVCAR-3 ovarian,> 100 µM
same,TGI,OVCAR-5 ovarian,> 100 µM
same,TGI,OVCAR-8 ovarian,> 100 µM
same,TGI,RPMI-8226 leukemia,> 100 µM
same,TGI,RXF 393 renal,> 100 µM
same,TGI,SF-268 CNS,> 100 µM
same,TGI,SF-295 CNS,> 100 µM
same,TGI,SF-539 CNS,> 100 µM
same,TGI,SK-MEL-2 melanoma,> 100 µM
same,TGI,SK-MEL-28 melanoma,> 100 µM
same,TGI,SK-MEL-5 melanoma,> 100 µM
same,TGI,SK-OV-3 ovarian,> 100 µM
same,TGI,SN12C renal,> 100 µM
same,TGI,SNB-19 CNS,> 100 µM
same,TGI,SNB-75 CNS,78.8 µM
same,TGI,SNB-78 CNS,> 100 µM
same,TGI,SR leukemia,> 100 µM
same,TGI,SW-620 colon,> 100 µM
same,TGI,TK-10 renal,> 100 µM
same,TGI,U251 CNS,> 100 µM
same,TGI,UACC-257 melanoma,> 100 µM
same,TGI,UACC-62 melanoma,> 100 µM
same,TGI,UO-31 renal,> 100 µM
